According to patent US20250280816A1, “INSECT TRAP” (Scotts Canada Ltd., priority 2017, published 2025):

Tests used:
Type in all cases: in vivo, Cimex lectularius
[1] = system: bed bugs (C. lectularius); experiment: three-dish, dual-choice olfactometer bioassay; settings: Exp. 23-37; nymphs; amounts in micrograms in parentheses of the bait
Text: Bioassays were run in dual-choice olfactometers and in large Plexiglass arenas (FIG. 19). Dual-choice olfactometers consisted of two lateral Pyrex® glass Petri dishes, connected to a central dish (all dishes 3×9 cm inner diameter) via a Pyrex® glass tube (2.5 cm long×2 cm inner diameter). The dishes in this olfactometer mimic the natural still-air shelters in which bed bugs spend the day. Prior to the start of bioassays, a disc of paper toweling (9 cm diameter) was placed into each dish and a strip of paper toweling (2.4×0.6 cm) was inserted into the connecting glass tubing to provide traction for walking bed bugs. In addition, a piece of filter paper (2×3 cm; Whatman) was placed into each lateral dish and covered with a piece of cardboard (2×2 cm) as a refuge for bioassay insects.
Treatment and control stimuli were randomly assigned to each lateral dish. Olfactometers were enclosed in opaque plastic bins to prevent light from entering and affecting the insects' responses. For each replicate, a single 3rd, 4th, or 5th instar C. lectularius nymph was released into the central chamber of the olfactometer, which was then covered with a glass plate to prevent escape. The single bed bug in each olfactometer was then allowed to explore all chambers. Each insect was released into an olfactometer at the end of the 14-h photophase allowing it to explore the chambers during 10 h of darkness, and to come to rest in one of the shelters during 10 h of light. After this 20-h period, the insect's position within the olfactometer was recorded. Any insects not found in a lateral chamber were recorded as non-responders. All experimental replicates were run at 24±2° C. and 30-60% RH. Olfactometers were washed with Sparkleen detergent (Fisher Scientific Co, Pittsburgh, PA, USA), and were oven-dried (Precision, Winchester, VA, USA) between each bioassay.

bed bugs [2] = experiment: large Plexiglass arena bioassay with baited shelters; settings: adult males
Text: The large two-chamber Plexiglass arena (180 cm long×12 cm high×13 cm wide) was designed with a central divider (180 cm long×5.5 cm high) to accommodate two pieces of wood (162 cm long×3.8 cm wide×0.8 cm high), each piece for testing the response of a single bed bug to a pheromone-baited shelter or a control shelter (see insert in FIG. 19) which were randomly assigned to either end of the wood. […] For each replicate, a single bed bug was placed in the center of the wood piece just prior to the end of the 14-h photophase, and its position was scored the next morning after the onset of the photophase.
Experiments 68-75 also investigated the effect of the volatile pheromone components (VPCs) (E)-2-hexenal, (E)-2-octenal, dimethyl disulfide, dimethyl trisulfide and 2-hexanone, and the effect of the less-volatile pheromone component histamine (H), on attraction and arrestment of bed bugs. Treatment stimuli consisted of filter paper (4×2.2 cm) impregnated with H (2,000 μg) and covered with a piece of corrugated cardboard shelter (3×2.2 cm), and of VPCs formulated at a high dose (500 μg; Experiments 68-74) or a medium dose (50 μg; Exp. 75) in mineral oil (0.5 mL) and pipetted into the inverted lid of a 20-ml scintillation vial resting on top of the shelter (FIG. 19). Control stimuli were of identical design but the filter paper contained no H, and the mineral oil contained no VPCs.

bed bugs [3] = experiment: pheromone-baited shelter traps in a heavily infested residential apartment (Room 106); settings: Exp. 76-79, 24-h periods; for Mean ± SE number insects in baited shelter: VPCs total 500 μg, histamine 2,000 μg, nymphal and adult bed bugs; for Mean (±SE) number insects in control shelter: unbaited control shelter paired with the baited shelter
Text: To determine whether bed bugs responded to synthetic pheromone lures not only in large arena laboratory bioassays but also in infested premises (residential apartments), we placed pheromone-baited shelter traps (see FIG. 19) in apartments with known or suspected bed bug infestations. […] Based on 24-hour trapping results in multiple apartments, we selected a single, heavily infested apartment (hereafter referred to as Room 106) for further testing of synthetic bed bug pheromone lures.
Replicates (n=15-20) of each experiment consisted of paired shelters placed against a wall or furniture, with approximately 30-cm spacing between paired shelters and >1 m spacing between shelter pairs. For each shelter pair within each experiment, pheromone and control treatments were randomly assigned, and placement of replicates was alternated between the two experiments of Set 1 and Set 2. Because not more than 10 shelter pairs could be accommodated in Room 106 at any time, experimental data were collected over several consecutive 24-h periods. Every morning at 9:00, shelters were collected from Room 106 and immediately placed into separate labelled zipper lock bags which were then put on dry ice to kill the bed bugs that had entered a shelter. Bed bugs in each shelter were later counted in the laboratory under a microscope, noting their developmental stage (1st, 2nd, 3rd, or 4th instar, adult), sex (male, female), and evidence (or not) for blood feeding prior to entry into a shelter. Immediately following the removal of bed bug shelters from Room 106 each morning, new pre-prepared shelters were pheromone-baited (treatment) or not (control) and their position within shelter pairs randomly assigned (see above), again alternating placement of shelter pairs between Experiments 76 and 77 (Set 1) and between Experiments 78 and 79 (Set 2).

## NCCc1c[nH]cn1 [H, histamine]
[1]
  No. insects in bait chamber: 35
  No. insects in control chamber: 10
  No. insects not responding: 3
Bed bugs [2]; Exp. 68-71, 73, baited shelter 1 vs unbaited shelter 2, VPCs 500 μg, histamine 2,000 μg
  No. insects in shelter 1: 12
Bed bugs [2]; Exp. 68-71, 73, baited shelter 1 vs unbaited shelter 2
  No. insects not responding: 5
Bed bugs [2]; Exp. 68-71, 73, unbaited shelter 2 paired with the baited shelter 1
  No. insects in shelter 2: 1
Bed bugs [2]; Exp. 68-71, 73, unbaited shelter 2 paired with the baited shelter 1, listed as histamine
  No. insects in shelter 2: one
Bed bugs [2]; Exp. 72, shelter 2 H (2,000 μg) vs shelter 1 VPC (500 μg)
  No. insects in shelter 2: 14
Bed bugs [2]; Exp. 74, shelter 2 H (2,000 μg) vs shelter 1 VPC (500 μg) + H
  No. insects in shelter 2: 5
Bed bugs [2]; Exp. 75, shelter 2 H (2,000 μg) vs shelter 1 VPC (50 μg) + H
  No. insects in shelter 2: 0
Bed bugs [3]
  Mean ± SE number insects in baited shelter: 6.06 ± 1.28
  Mean (±SE) number insects in control shelter: 4.53 ± 1.8
Bed bugs [3]; listed as histamine
  Mean ± SE number insects in baited shelter: 6.06
  Mean (±SE) number insects in control shelter: 4.53
